Laboratory results published in the supplement of paper PMC11451515.

System: SEM cells
Experiment: cell viability relative to DMSO control; higher = less cytotoxic
Conditions: 48 h
Procedure, shortened: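 NOMO1 or SEM (500 cells/well) or P12-Ichikawa (1000 cells/well) leukemia cells were adapted for at least four passages in each medium. They were seeded in 1536-well plates (5 μl) and pin-dosed with library compounds in DMSO over an 11-point threefold series, 47 μM to 0.79 nM. CellTiter-Glo One luminescence was read after 48 h at 37°C. Viability is the per-plate percentage relative to DMSO wells, with cell-free wells as background.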

[1] = HPLM + 10% dialyzed FBS, 0.000781 µM
[2] = HPLM + 10% dialyzed FBS, 0.00234 µM
[3] = HPLM + 10% dialyzed FBS, 0.00702 µM
[4] = HPLM + 10% dialyzed FBS, 0.0211 µM
[5] = HPLM + 10% dialyzed FBS, 0.0632 µM
[6] = HPLM + 10% dialyzed FBS, 0.19 µM
[7] = HPLM + 10% dialyzed FBS, 0.569 µM
[8] = HPLM + 10% dialyzed FBS, 1.71 µM
[9] = HPLM + 10% dialyzed FBS, 5.12 µM
[10] = HPLM + 10% dialyzed FBS, 15.4 µM
[11] = HPLM + 10% dialyzed FBS, 46.1 µM
[12] = RPMI 5 mM glucose + 10% FBS, 0.000781 µM
[13] = RPMI 5 mM glucose + 10% FBS, 0.00234 µM
[14] = RPMI 5 mM glucose + 10% FBS, 0.00702 µM
[15] = RPMI 5 mM glucose + 10% FBS, 0.0211 µM
[16] = RPMI 5 mM glucose + 10% FBS, 0.0632 µM
[17] = RPMI 5 mM glucose + 10% FBS, 0.19 µM
[18] = RPMI 5 mM glucose + 10% FBS, 0.569 µM
[19] = RPMI 5 mM glucose + 10% FBS, 1.71 µM
[20] = RPMI 5 mM glucose + 10% FBS, 5.12 µM
[21] = RPMI 5 mM glucose + 10% FBS, 15.4 µM
[22] = RPMI 5 mM glucose + 10% FBS, 46.1 µM
[23] = RPMI 5 mM glucose + 10% dialyzed FBS, 0.000781 µM
[24] = RPMI 5 mM glucose + 10% dialyzed FBS, 0.00234 µM
[25] = RPMI 5 mM glucose + 10% dialyzed FBS, 0.00702 µM
[26] = RPMI 5 mM glucose + 10% dialyzed FBS, 0.0211 µM
[27] = RPMI 5 mM glucose + 10% dialyzed FBS, 0.0632 µM
[28] = RPMI 5 mM glucose + 10% dialyzed FBS, 0.19 µM
[29] = RPMI 5 mM glucose + 10% dialyzed FBS, 0.569 µM
[30] = RPMI 5 mM glucose + 10% dialyzed FBS, 1.71 µM
[31] = RPMI 5 mM glucose + 10% dialyzed FBS, 5.12 µM
[32] = RPMI 5 mM glucose + 10% dialyzed FBS, 15.4 µM
[33] = RPMI 5 mM glucose + 10% dialyzed FBS, 46.1 µM

| Structure (SMILES) | cell viability [1] [%] | cell viability [2] [%] | cell viability [3] [%] | cell viability [4] [%] | cell viability [5] [%] | cell viability [6] [%] | cell viability [7] [%] | cell viability [8] [%] | cell viability [9] [%] | cell viability [10] [%] | cell viability [11] [%] | cell viability [12] [%] | cell viability [13] [%] | cell viability [14] [%] | cell viability [15] [%] | cell viability [16] [%] | cell viability [17] [%] | cell viability [18] [%] | cell viability [19] [%] | cell viability [20] [%] | cell viability [21] [%] | cell viability [22] [%] | cell viability [23] [%] | cell viability [24] [%] | cell viability [25] [%] | cell viability [26] [%] | cell viability [27] [%] | cell viability [28] [%] | cell viability [29] [%] | cell viability [30] [%] | cell viability [31] [%] | cell viability [32] [%] | cell viability [33] [%] |
| --- | --- | --- | --- | --- | --- | --- | --- | --- | --- | --- | --- | --- | --- | --- | --- | --- | --- | --- | --- | --- | --- | --- | --- | --- | --- | --- | --- | --- | --- | --- | --- | --- | --- |
| COc1cc2nc(N(C)CCCNC(=O)C3CCCO3)nc(N)c2cc1OC (stereo not given) | 53.9 | 66.5 | 58.9 | 80.3 | 84.7 | 84.9 | 75.5 | 89.3 | 74.2 | 79.2 | 73.3 | 60.7 | 61.4 | 64.1 | 71.7 | 87.1 | 102 | 82.9 | 75.3 | 73.4 | 76.4 | 62.2 | 69.7 | 67.7 | 69.5 | 97.7 | 89 | 93.7 | 74.1 | 87.3 | 75 | 77.4 | 67.2 |
| CC(C)n1nc(-c2cc3cc(O)ccc3[nH]2)c2c(N)ncnc21 | 93.3 | 104 | 111 | 94.3 | 81 | 84.4 | 45.2 | 52.9 | 25.9 | 16.7 | 6.97 | 106 | 107 | 114 | 136 | 108 | 85.4 | 66.3 | 66 | 38 | 23.6 | 8.3 | 90.8 | 99.4 | 92.4 | 87.7 | 94.8 | 87.6 | 48.7 | 52.4 | 35.4 | 20.9 | 6.33 |
| N=C(CCSCc1csc(N=C(N)N)n1)N[S+](N)(=O)[O-] | 85.8 | 82.3 | 96.9 | 82.6 | 94.5 | 99 | 109 | 98.5 | 106 | 96.1 | 92.6 | 89.9 | 87.6 | 103 | 88 | 91.8 | 102 | 99.4 | 96.5 | 100 | 105 | 92.2 | 80.5 | 80.4 | 107 | 82.2 | 89 | 93.6 | 96.1 | 103 | 107 | 92.6 | 116 |
| Cc1nc(NC(=O)N2CCC[C@H]2C(N)=O)sc1-c1ccnc(C(C)(C)C(F)(F)F)c1 | 91.6 | 98.2 | 84.2 | 96.9 | 93 | 72.5 | 74.4 | 63.3 | 59.1 | 52.7 | 100 | 98.7 | 111 | 102 | 121 | 112 | 91.1 | 97.8 | 86.6 | 74.5 | 68.2 | 119 | 96.3 | 95.9 | 84 | 93 | 85.7 | 92.3 | 86.1 | 77.2 | 62.2 | 58 | 89.2 |
| Cl.Cl.Cl.O[C@@H](COc1cccc2ncccc12)CN1CCN([C@@H]2c3ccccc3[C@@H]3[C@H](c4ccccc42)C3(F)F)CC1 | 88.2 | 103 | 82.3 | 83.8 | 105 | 90 | 84.5 | 89.6 | 91.9 | 71.2 | 73.4 | 89.3 | 100 | 75.7 | 95.7 | 98.6 | 82.6 | 86.2 | 94.5 | 100 | 97.3 | 3.4 | 94.1 | 92.1 | 85.7 | 93.9 | 101 | 102 | 86.9 | 106 | 85.3 | 105 | 83.5 |
| O=C(NOCC(O)CO)c1cc(Br)c(F)c(F)c1Nc1ccc(I)cc1F (stereo not given) | 66.2 | 76.3 | 73 | 78.6 | 77.2 | 83 | 80.4 | 62.4 | 46.3 | 60.7 | 44.1 | 63.8 | 92 | 76.8 | 90.1 | 94.4 | 80.3 | 70.8 | 69.3 | 52.7 | 45.7 | 37 | 73.3 | 95.8 | 67.4 | 83.1 | 81.6 | 67.5 | 54.1 | 61.1 | 39 | 37.1 | 42.1 |
| C=C(C)[C@@H]1CC[C@]2(C(=O)O)CC[C@]3(C)[C@H](CC[C@@H]4[C@@]5(C)CC[C@H](O)C(C)(C)[C@@H]5CC[C@]43C)[C@@H]12 |  |  |  |  |  |  |  |  |  |  |  | 115 | 116 | 134 | 129 | 140 | 52.4 | 128 | 123 | 42.7 | 112 | 107 |  |  |  |  |  |  |  |  |  |  |  |
| COC1=CC=CC=C1C2=CC=CC(=C2)C/3=C(O)/C4=CC(=C(Cl)C=C4NC3=O)C#N | 79.2 | 92.5 | 88.2 | 93.5 | 101 | 97.5 | 92.1 | 85.7 | 39.6 | 9.1 | 4.47 | 73.4 | 89.9 | 90.7 | 103 | 83 | 81.3 | 63.9 | 48 | 7.21 | 4.33 | 2.82 | 87.3 | 102 | 92.9 | 98.7 | 93.4 | 102 | 93.4 | 69 | 21.6 | 7.81 | 3.41 |
| CN[S+](=O)([O-])Cc1ccc2[nH]cc(CCN(C)C)c2c1 | 95.3 | 104 | 102 | 111 | 112 | 118 | 113 | 119 | 118 | 129 | 118 | 89.2 | 114 | 104 | 114 | 107 | 119 | 121 | 115 | 126 | 128 | 128 | 93.4 | 86 | 87 | 91.8 | 94.1 | 102 | 95.7 | 106 | 94.8 | 111 | 92.9 |
| CN(C)c1ccc(O)c2c1C[C@H]1C[C@H]3[C@H](N(C)C)C(O)=C(C(N)=O)C(=O)[C@@]3(O)C(O)=C1C2=O | 97.4 | 98.3 | 93.9 | 108 | 107 | 103 | 91.9 | 104 | 104 | 107 | 118 | 98.3 | 103 | 93.8 | 96.4 | 114 | 108 | 105 | 110 | 103 | 93.5 | 106 | 106 | 119 | 106 | 106 | 105 | 106 | 115 | 122 | 114 | 107 | 104 |
| COc1ccc(C[C@@H](C)[C@@H](C)Cc2ccc(OC)c(OC)c2)cc1OC | 73.5 | 93.2 | 85.2 | 92.7 | 96 | 94.9 | 91.8 | 83.2 | 19 | 16.3 | 8.54 | 80.6 | 104 | 102 | 111 | 106 | 120 | 93.3 | 82.4 | 18.7 | 16.7 | 4.5 | 76.3 | 97.7 | 88.9 | 91.7 | 88.9 | 83.7 | 81.1 | 74 | 18.3 | 14.9 | 4 |
| C#Cc1cccc(Nc2ncnc3cc(OCCOC)c(OCCOC)cc23)c1 | 93.5 | 95.7 | 90.4 | 95.2 | 102 | 104 | 92.9 | 94.7 | 71.5 | 83 | 32.9 | 119 | 133 | 120 | 128 | 114 | 119 | 97.1 | 115 | 77.9 | 107 | 27.4 | 86.8 | 104 | 90.5 | 99.2 | 90.2 | 93.6 | 87.5 | 77.9 | 59.7 | 68.6 | 19.9 |
| CC(=O)O.Cc1c(-c2ccc(O)cc2)n(Cc2ccc(OCCN3CCCCCC3)cc2)c2ccc(O)cc12 | 88.5 | 50 | 91.9 | 92 | 99.7 | 112 | 102 | 101 | 93.5 | 117 | 99.5 | 92 | 46.9 | 89 | 98.7 | 86.6 | 95.4 | 89.2 | 95.5 | 86.9 | 92.5 | 94.4 | 90.2 | 41.7 | 93.8 | 99.6 | 81.2 | 102 | 101 | 94.1 | 110 | 119 | 101 |
| CC\1=C/C=C\C=[N]1[Pt](N)(Cl)Cl | 82 | 79.2 | 91.4 | 96.5 | 102 | 84.1 | 89.5 | 89 | 98.1 | 83.6 | 85.1 | 99.2 | 119 | 126 | 108 | 119 | 124 | 114 | 109 | 110 | 120 | 58 | 80.5 | 90.5 | 97.1 | 100 | 98.1 | 91.4 | 87.3 | 83 | 91.5 | 79.5 | 55.9 |
| C[C@]\12CC[C@H](O)CC1=C/CC3C2CC[C@@]\4(C)C3C\C=C4[N]5C=NC6=C5C=CC=C6 (stereo not given in full) | 90.4 | 82.4 | 99.7 | 103 | 61.4 | 97.7 | 109 | 115 | 109 | 114 | 101 | 96.1 | 93.3 | 101 | 121 | 96.6 | 97 | 109 | 115 | 117 | 113 | 104 | 99.8 | 88.9 | 106 | 115 | 102 | 103 | 108 | 119 | 109 | 109 | 112 |
| O=C(NCC[S+](=O)([O-])c1ccc(C(F)(F)F)cn1)c1ccc(Cl)cc1 | 115 | 126 | 107 | 117 | 111 | 114 | 103 | 106 | 101 | 104 | 107 | 94.5 | 111 | 89.7 | 96.7 | 86.8 | 104 | 99.2 | 81 | 80.6 | 109 | 87.1 |  |  |  |  |  |  |  |  |  |  |  |
